Test results published in ChEMBL document CHEMBL1153577, “2D- and 3D-QSAR studies on 54 anti-tumor Rubiaceae-type cyclopeptides” (Eur J Med Chem, 2009).

System: P388
Test: Cytotoxicity against mouse P388 cell
Type: functional, cell-based
Settings: Mus musculus, P388

| Structure (SMILES) | IC50 [nM] |
| --- | --- |
| COc1ccc(C[C@H]2C(=O)N[C@@H](C)C(=O)N(C)[C@H]3Cc4ccc(cc4)Oc4cc(ccc4OC)C[C@@H](C(=O)N[C@H](C)C(=O)N[C@@H](CCC(=O)O)C(=O)N2C)N(C)C3=O)cc1 | 219 |
| CCCc1ccc(C[C@H]2C(=O)N[C@@H](C)C(=O)N(C)[C@H]3Cc4ccc(cc4)Oc4cc(ccc4OC)C[C@@H](C(=O)N[C@H](C)C(=O)N[C@@H](C)C(=O)N2C)N(C)C3=O)cc1 | 25.7 |
| C=C[C@@H]1NC(=O)[C@@H](C)NC(=O)[C@@H]2Cc3ccc(OC)c(c3)Oc3ccc(cc3)C[C@@H](C(=O)N2C)N(C)C(=O)[C@H](C)NC(=O)[C@H](Cc2ccc(OC)cc2)N(C)C1=O | 25.7 |
| COc1ccc2cc1Oc1ccc(cc1)C[C@H]1C(=O)N(C)[C@@H](C2)C(=O)N[C@H](C)C(=O)N[C@@H](C)C(=O)N(C)[C@@H](Cc2ccc(C)cc2)C(=O)N[C@@H](C)C(=O)N1C | 24 |
| COc1ccc(C[C@H]2C(=S)N[C@@H](C)C(=O)N(C)[C@H]3Cc4ccc(cc4)Oc4cc(ccc4OC)C[C@@H](C(=O)N[C@H](C)C(=O)N[C@@H](C)C(=O)N2C)N(C)C3=O)cc1 | 0.741 |
| COc1ccc(C[C@H]2C(=O)N[C@@H](C)C(=O)N(C)[C@H]3Cc4ccc(cc4)Oc4cc(ccc4OC)C[C@@H](C(=O)N[C@H](C)C(=O)N[C@@H](C)C(=O)N2C)N(C)C3=O)cc1O | 214 |
| COc1ccc(C[C@H]2C(=S)N[C@@H](C)C(=O)N(C)[C@H]3Cc4ccc(cc4)Oc4cc(ccc4OC)C[C@@H](C(=S)N[C@H](C)C(=O)N[C@@H](C)C(=O)N2C)N(C)C3=O)cc1 | 2.14 |
| COc1ccc(C[C@@H]2NC(=O)[C@H](C)NC(=O)[C@@H](C)NC(=O)[C@@H]3Cc4ccc(OC)c(c4)Oc4ccc(cc4)C[C@@H](C(=O)N3C)N(C)C(=O)[C@H](C)NC2=O)cc1 | 120 |
| C=CC[C@@H]1NC(=O)[C@@H](C)NC(=O)[C@@H]2Cc3ccc(OC)c(c3)Oc3ccc(cc3)C[C@@H](C(=O)N2C)N(C)C(=O)[C@H](C)NC(=O)[C@H](Cc2ccc(OC)cc2)N(C)C1=O | 38.9 |
| C[C@@H]1NC(=O)[C@@H](C)NC(=O)[C@@H]2Cc3ccc(O)c(c3)Oc3ccc(cc3)C[C@@H](C(=O)N2C)N(C)C(=O)[C@H](C)NC(=O)[C@H](Cc2ccccc2)N(C)C1=O | 42.7 |
| COc1ccc(C[C@H]2C(=S)N[C@@H](C)C(=O)N(C)[C@H]3Cc4ccc(cc4)Oc4cc(ccc4OC)C[C@@H](C(=O)N[C@H](C)C(=S)N[C@@H](C)C(=O)N2C)N(C)C3=O)cc1 | 5.5 |
| COc1ccc(C[C@H]2C(=O)N[C@@H](C)C(=O)N(C)[C@H]3Cc4ccc(c(O)c4)Oc4cc(ccc4OC)C[C@@H](C(=O)N[C@H](C)C(=O)N[C@@H](C)C(=O)N2C)N(C)C3=O)cc1 (stereo in doubt; 39) | 4790 |
| C[C@@H]1NC(=O)[C@@H](C)NC(=O)[C@@H]2Cc3cccc(c3)Oc3ccc(cc3)C[C@@H](C(=O)N2C)N(C)C(=O)[C@H](C)NC(=O)[C@H](Cc2ccccc2)N(C)C1=O | 525 |
| C/C=C/c1ccc(C[C@H]2C(=O)N[C@@H](C)C(=O)N(C)[C@H]3Cc4ccc(cc4)Oc4cc(ccc4OC)C[C@@H](C(=O)N[C@H](C)C(=O)N[C@@H](C)C(=O)N2C)N(C)C3=O)cc1 | 5.01 |
| COc1ccc(C[C@H]2C(=O)N[C@@H](C)C(=O)N(C)[C@H]3Cc4ccc(cc4)Oc4cc(ccc4OC)C[C@@H](C(=O)N[C@H](C)C(=O)N[C@@H](CS)C(=O)N2C)N(C)C3=O)cc1 | 363 |
| CCc1ccc(C[C@H]2C(=O)N[C@@H](C)C(=O)N(C)[C@H]3Cc4ccc(cc4)Oc4cc(ccc4OC)C[C@@H](C(=O)N[C@H](C)C(=O)N[C@@H](C)C(=O)N2C)N(C)C3=O)cc1 | 9.33 |
| COc1ccc(C[C@H]2C(=O)N[C@@H](C)C(=O)N(C)[C@H]3Cc4ccc(cc4)Oc4cc(ccc4OC)C[C@@H](C(=O)N[C@H](C)C(=O)N4CCCC[C@H]4C(=O)N2C)N(C)C3=O)cc1 | 97.7 |
| COc1ccc(C[C@H]2C(=O)N[C@@H](C)C(=O)N(C)[C@H]3Cc4ccc(cc4)Oc4cc(ccc4OC)C[C@@H](C(=O)N[C@H](C)C(=O)N[C@@H](CCCO)C(=O)N2C)N(C)C3=O)cc1 | 174 |
| COc1ccc(C[C@H]2C(=O)N[C@@H](C)C(=O)N(C)[C@H]3Cc4ccc(cc4)Oc4cc(ccc4OC)C[C@@H](C(=O)N[C@H](C)C(=O)N[C@@H](CSC(C)=O)C(=O)N2C)N(C)C3=O)cc1 | 9.77 |
| COc1ccc(C[C@H]2C(=O)N[C@@H](C)C(=O)N(C)[C@H]3Cc4ccc(cc4)Oc4cc(ccc4OC)C[C@@H](C(=O)N[C@H](C)C(=O)N[C@@H](CCSC)C(=O)N2C)N(C)C3=O)cc1 | 20.4 |
| COC(=O)CC[C@@H]1NC(=O)[C@@H](C)NC(=O)[C@@H]2Cc3ccc(OC)c(c3)Oc3ccc(cc3)C[C@@H](C(=O)N2C)N(C)C(=O)[C@H](C)NC(=O)[C@H](Cc2ccc(OC)cc2)N(C)C1=O | 58.9 |

| Structure (SMILES) | IC50 [nM] |
| --- | --- |
| COC(=O)C[C@@H]1NC(=O)[C@@H](C)NC(=O)[C@@H]2Cc3ccc(OC)c(c3)Oc3ccc(cc3)C[C@@H](C(=O)N2C)N(C)C(=O)[C@H](C)NC(=O)[C@H](Cc2ccc(OC)cc2)N(C)C1=O | 41.7 |
| COc1ccc(C[C@H]2C(=O)N[C@@H](C)C(=O)N(C)[C@H]3Cc4ccc(cc4)Oc4cc(ccc4OC)C[C@@H](C(=O)N[C@H](C)C(=O)N[C@@H](CCCN=[N+]=[N-])C(=O)N2C)N(C)C3=O)cc1 | 35.5 |
| C=Cc1ccc(C[C@H]2C(=O)N[C@@H](C)C(=O)N(C)[C@H]3Cc4ccc(cc4)Oc4cc(ccc4OC)C[C@@H](C(=O)N[C@H](C)C(=O)N[C@@H](C)C(=O)N2C)N(C)C3=O)cc1 | 17 |
| COc1ccc(C[C@H]2C(=O)N[C@@H](C)C(=O)N(C)[C@H]3Cc4ccc(cc4)Oc4cc(ccc4OC)C[C@@H](C(=O)N[C@H](C)C(=O)N[C@@H](CCCCO)C(=O)N2C)N(C)C3=O)cc1 | 219 |
| COc1ccc(C[C@H]2C(=O)N[C@@H](C)C(=O)N(C)[C@H]3Cc4ccc(c(O)c4)Oc4cc(ccc4O)C[C@@H](C(=O)N[C@H](C)C(=O)N[C@@H](C)C(=O)N2C)N(C)C3=O)cc1 | 9120 |
| COc1ccc(C[C@H]2C(=O)N[C@@H](C)C(=O)N(C)[C@H]3Cc4ccc(cc4)Oc4cc(ccc4OC)C[C@@H](C(=O)N[C@H](C)C(=O)NC4(SCCS4)C(=O)N2C)N(C)C3=O)cc1 | 631 |
| COc1ccc2cc1Oc1ccc(cc1)C[C@H]1C(=O)N(C)[C@@H](C2)C(=O)N[C@H](C)C(=O)N[C@@H](C)C(=O)N(C)[C@@H](Cc2ccccc2)C(=O)N[C@@H](C)C(=O)N1C | 295 |
| CCC[C@@H]1NC(=O)[C@@H](C)NC(=O)[C@@H]2Cc3ccc(OC)c(c3)Oc3ccc(cc3)C[C@@H](C(=O)N2C)N(C)C(=O)[C@H](C)NC(=O)[C@H](Cc2ccc(OC)cc2)N(C)C1=O | 13.8 |
| COc1ccc(C[C@H]2C(=O)N[C@@H](C)C(=O)N(C)[C@H]3Cc4ccc(cc4)Oc4cc(ccc4OC)C[C@@H](C(=O)N[C@H](C)C(=O)N[C@@H](CC=O)C(=O)N2C)N(C)C3=O)cc1 | 33.9 |
| COc1ccc(C[C@H]2C(=S)N[C@@H](C)C(=O)N(C)[C@H]3Cc4ccc(cc4)Oc4cc(ccc4O)C[C@@H](C(=O)N[C@H](C)C(=O)N[C@@H](C)C(=O)N2C)N(C)C3=O)cc1 | 1.15 |
| COC(=O)C[C@@H]1NC(=O)[C@@H](C)NC(=O)[C@@H]2Cc3ccc(OC)c(c3)Oc3ccc(cc3)C[C@@H](C(=O)N2C)N(C)C(=O)[C@H](C)NC(=S)[C@H](Cc2ccc(OC)cc2)N(C)C1=O | 4.79 |
| COc1ccc(C[C@H]2C(=O)N[C@@H](C)C(=O)N(C)[C@H]3Cc4ccc(cc4)Oc4cc(ccc4OC)C[C@@H](C(=O)N[C@H](C)C(=O)N4CCC[C@H]4C(=O)N2C)N(C)C3=O)cc1 | 100 |
| COc1ccc(C[C@H]2C(=O)N[C@@H](C)C(=O)N(C)[C@H]3Cc4ccc(cc4)Oc4cc(ccc4OC)C[C@@H](C(=O)N[C@H](C)C(=O)N[C@@H](CC(=O)O)C(=O)N2C)N(C)C3=O)cc1 | 1200 |
| COc1ccc(C[C@H]2C(=O)N[C@@H](C)C(=O)N(C)[C@H]3Cc4ccc(cc4)Oc4cc(ccc4OC)C[C@@H](C(=O)N[C@H](C)C(=O)N[C@@H](CO)C(=O)N2C)N(C)C3=O)cc1 | 14.1 |
| COc1ccc(C[C@H]2C(=O)N[C@@H](C)C(=O)N(C)[C@H]3Cc4ccc(cc4)Oc4cc(ccc4OC)C[C@@H](C(=O)N[C@H](C)C(=O)N4C(=O)CC[C@H]4C(=O)N2C)N(C)C3=O)cc1 | 457 |
| COc1ccc(C[C@H]2C(=O)N[C@@H](C)C(=O)N(C)[C@H]3Cc4ccc(cc4)Oc4cc(ccc4OC)C[C@@H](C(=S)N[C@H](C)C(=O)N[C@@H](C)C(=O)N2C)N(C)C3=O)cc1 | 3.31 |
| COc1ccc(C[C@H]2C(=S)N[C@@H](C)C(=O)N(C)[C@H]3Cc4ccc(cc4)Oc4cc(ccc4OC)C[C@@H](C(=O)N[C@H](C)C(=O)N[C@@H](C)C(=S)N2C)N(C)C3=O)cc1 | 1.62 |
| COc1ccc(C[C@H]2C(=O)N[C@@H](C)C(=O)N(C)[C@H]3Cc4ccc(c(O)c4)Oc4cc(ccc4OC)C[C@@H](C(=O)N[C@H](C)C(=O)N[C@@H](C)C(=O)N2C)N(C)C3=O)cc1O | 15100 |
| COc1ccc(C[C@H]2C(=O)N[C@@H](C)C(=O)N(C)[C@H]3Cc4ccc(cc4)Oc4cc(ccc4O)C[C@@H](C(=O)N[C@H](C)C(=O)N[C@@H](C)C(=O)N2C)N(C)C3=O)cc1 [DEOXYBOUVARDIN] | 3.55 |
| COc1ccc(C[C@H]2C(=O)N[C@@H](C)C(=O)N(C)[C@H]3Cc4ccc(cc4)Oc4cc(ccc4OC)C[C@@H](C(=O)N[C@H](C)C(=O)N[C@@H](CCO)C(=O)N2C)N(C)C3=O)cc1 | 60.3 |

Same assay, conditions: p388

| Structure (SMILES) | pIC50 |
| --- | --- |
| COc1ccc(C[C@H]2C(=O)N[C@@H](C)C(=O)N(C)[C@H]3Cc4ccc(c(O)c4)Oc4cc(ccc4OC)C[C@@H](C(=O)N[C@H](C)C(=O)N[C@@H](C)C(=O)N2C)N(C)C3=O)cc1 (stereo in doubt; 40) | 5.24 |
